# Assay results: paper PMC8405639, “2-Carba-lysophosphatidic acid is a novel β-lysophosphatidic acid analogue with high potential for lysophosphatidic acid receptor activation and autotaxin inhibition” (Scientific Reports, 2021)
# Key:
# [1] = 2carbaLPA detection in rat plasma after oral 2ccPA capsule; type: in vivo; conditions: oral gastro-resistant (entero-soluble) capsule of 2ccPA, 0-10 h
# Source text: Supplementary Figure S5. 2-carba-lysophosphatidic acid (2carbaLPA) produced in rat plasma from rats administered 2-carba-cyclic phosphatidic acid (2ccPA) as a gastro-resistant capsule. Rats were orally administered with 2ccPA containing capsule and 2carbaLPA produced in plasma was detected using liquid chromatography with tandem mass spectrometry (LC-QqQ) and presented as peak area (counts). Data are represented as mean ± standard deviation (n = 5 rat samples).
# Preparation of 2ccPA intended to be administered as a gastro-resistant capsule, administration of the prepared 2ccPA in rats, and extraction of lipids from plasma samples were performed as per previously described methods^1. The experimental protocols were approved by the Animal Research Committee of the Saitama Medical University (approval number; 2113). Briefly, each capsule was filled with 19.70 ± 1.39 mg of 2ccPA and enteric-coated. Male 7-week-old Sprague Dawley rats were orally administrated with a single capsule and blood was collected from the jugular vein using a catheter from 0 to 10 h. Plasma was obtained by mixing with EDTA-Na2 (1 mg/mL), and the lipid fraction was extracted by adding acidic methanol, including LPA 17:0 (final concentration: 100 nM; Avanti Polar Lipids) as internal standard. Analysis for detection of 2carbaLPA with LC-QqQ was performed as above.
# [2] = system: extracellular signal-regulated kinase (ERK) phosphorylation; test: Western blot analysis of phosphorylated ERK in HeLa cells; type: cell-based; conditions: HeLa cells, 10 µM, 5 min, 37 °C, western blot
# Procedure: Figure 3 Effects of 2-carba-lysophosphatidic acid (2carbaLPA) on the phosphorylation of the extracellular signal-regulated kinase (ERK) protein. HeLa cells were preincubated with 10 µM Ki16425 for 30 min at 37 °C and then incubated with 10 µM 2carbaLPA, lysophosphatidic acid (LPA) 18:1, or vehicle for 5 min at 37 °C. Protein levels of phosphorylated ERK, total ERK, and α-tubulin were determined by western blot analysis. The full-length blots are shown in the Supplementary Fig. S2.
# HeLa cells were obtained from RIKEN RBC Cell Bank (Tsukuba, Japan). […] Cells were harvested using 0.125 M Tris–HCl (pH 6.8) supplemented with 4% sodium dodecyl sulphate (SDS), 20% glycerol, 10% 2-mercaptoethanol, and 0.01% bromophenol blue. Proteins were separated by SDS–polyacrylamide gel electrophoresis, and the proteins were transferred onto an Immobilon-P Transfer Membrane (Millipore, Burlington, MA, USA). The membrane was incubated with primary antibodies: anti-phospho-ERK (pERK), anti-ERK, and anti-tubulin (all at 1:1,000 dilution, Cell Signaling Technology, Danvers, MA, USA). Next, after washing, the membrane was treated with horseradish peroxidase-conjugated anti-rabbit IgG (1:1000 dilution; Cell Signaling Technology). Immunodetection was performed using an enhanced chemiluminescence system (EzWestLumi plus, ATTO Corporation, Tokyo, Japan) and ImageQuant LAS 4000 (GE healthcare, Buckinghamshire, UK).
# [3] = cPA analogue stability in the 293A cell medium; type: in vitro ADME; conditions: 10 µM, 37 °C, 293A (HEK) cell medium
# Procedure: Supplementary Figure S3. Cyclic phosphatidic acid (cPA) analogue stability in the HEK cell medium. Each cPA analogue (final concentration: 10 µM) was incubated with the HEK cell medium for 1 h at 37 °C. The remaining cPA analogue was quantified using liquid chromatography with tandem mass spectrometry (LC-QqQ) and calculated based on the percentage (%) ratio of the final concentration after incubation to the initial concentration. Data are represented as mean ± standard deviation (n = 3 samples).
# 293A cells were prepared in Hank’s balanced salt solution (HBSS) in 96-well plates. […] After incubation for 1 h at 37 ℃, 80 µL of the supernatant was collected and mixed with 320 µL of acidic methanol, including LPA 17:0 and cPA 17:0 (final concentration: 0.2 µM each; Avanti Polar Lipids, Alabaster, AL, USA).
# [4] = Degradation under acidic conditions (artificial gastric juice); type: physicochemical; conditions: artificial gastric juice pH 1.2, 2 h, 37 °C
# Procedure: 2ccPA was dissolved in artificial gastric juice (2 g NaCl and 12 M HCl 7 mL/1000 mL water at pH 1.2) at a final concentration of 1 mg/mL and incubated for 2 h at 37 °C. Lipid fraction was extracted by 4 volumes of chloroform/methanol (2:1, v/v) and separated by TLC as per previously reported. Extraction from the silica powder of TLC was performed by addition of 8 mL of chloroform/methanol (1:9, v/v) and it was repeated three times. After filtration (0.2 μm Captiva Premium syringe PTFE filter, Agilent Technologies, Santa Clara, CA, USA), the sample was diluted 100-fold with 5 mM ammonium formate in methanol/water (95:5, v/v) and subjected to QqTOF. The 3ccPA degradation compound was also prepared using the same method. The purity of the degradation compound was confirmed to be more than 95% by TLC, QqTOF, and LC-QqQ. Quantification was performed by weighing the purified sample after dried more than 24 h in the desiccator equipped with a vacuum pump.
compound,measurement,setting,value
"CCCCCCCC/C=C\CCCCCCCC(=O)OCC(CO)CP(=O)(O)O (stereo not shown) [2carbaLPA 18:1, 2-carba-lysophosphatidic acid]",2carbaLPA in plasma after administration of 2ccPA,[1],detectable
same,ERK phosphorylation (activation),[2],activated ERK
"CCCCCCCC/C=C\CCCCCCCC(=O)OC[C@@H](O)CCP(=O)(O)O [3carba LPA 18:1, 3-carba-lysophosphatidic acid]",Stability during 1 h,[3],mostly stable
"CCCCCCCC/C=C\CCCCCCCC(=O)OC[C@@H]1CCP(=O)(O)O1 [3ccPA 18:1, 3-carba-cyclic phosphatidic acid]",Conversion under acidic condition,[4],converted to the corresponding 3-carba-lysophosphatidic acid
